# Where two headings read alike, the source gives them in different places.
# Columns and labels:
# Type in all cases: physicochemical
# [1] = Chemical stability of Form I on storage (HPLC, visual inspection)
# Experimental: Chemical stability of Form I was tested in different open storage conditions for periods of 1, 4 and 8 weeks: 40° C./75% RH; 50° C.; RT/<5% RH; RT/56% RH; RT/75% RH and 0.3da ICH high intensity light. The compound was analysed after storage by HPLC and by visual inspection.
# [2] = Aqueous solubility of Forms I, III and hydrate at different pH
# Experimental: Solubility of polymorph Forms I and III and the hydrate form of the compound of formula (I) was tested in aqueous conditions at different pH values.
# [3] = Slurry conversion on mixtures of Form III and Form I (XRPD); design: key to Polymorphic composition (XRPD) after slurry: Form I; *: low amount of product; conditions: for Polymorphic composition (XRPD) after slurry: overnight
# Experimental: 30 mg of mixture of Form III and Form I and 0.25 ml solvent (2-propanol; or ethanol/water (8/2, v/v)) were placed in a vial. For each solvent, 2 vials were prepared and stored each at different temperatures (RT, 70° C.) overnight. After storage, the slurry was spread on a paper filter, the solid fractions were collected and dried 2 hours at RT. The polymorphic composition was measured using XRPD.
# [4] = Crystallographic stability of Form I on storage (TGA, DSC, XRPD, IR); design: key to IR: ±Ref: contain some small extra signals
# Experimental: The stability of the crystal structure of polymorph Form I of the compound (I) was studied after storage of the compound in open conditions for a period of six weeks at room temperature (RT) under <5%, 56% and 75% relative humidity (RH) at 50° C., and at 40° C. and 75% RH.
# The samples were analysed by TGA, DSC, XRPD and IR spectroscopy.
# [5] = Adsorption and desorption of water at 25° C. (Form I)
# Experimental: Adsorption and desorption of water at 25° C. at different conditions of relative humidity was investigated on about 10 mg Form I of compound of formula (I), by registering the weight change as a function of relative humidity.
# During an initial drying step a weight loss of 0.05% was registered.
# [6] = Stability of the hydrate form in aqueous suspension (XRPD, SEM); conditions: aqueous suspension 16 mg/ml
# Experimental: Aqueous suspension of the compound of formula (I) 16 mg/ml was stored at about 4° C. up to 9 days. Samples were taken after 1, 2 and 9 days of storage. The suspensions were spread over a paper filter and dried at room temperature for 2 hours. The obtained materials were analysed by XRPD.
# Moreover, the hydrate remained stable in the aqueous medium for at least 9 days (XRD not substantially changed).
# [7] = Thermal conversions in DSC oven (XRPD)
# Experimental: Form III or hydrate form were thermally treated in a DSC oven (heating rate 10° C./min) up to selected temperatures (isotherm for 1 min) using an open sample pan. The selected temperatures are for Form III: 110° C. and 170° C.; and for hydrate form: 70° C., 110° C. and 170° C. The polymorphic composition of the obtained fractions was measured by XRPD. Table 12 summarises XRPD patterns in DSC treated Form III. Table 13 summarises XRPD patterns in DSC treated hydrate
# [8] = six weeks open storage, 40° C./75% RH
# [9] = six weeks open storage, RT/56% RH
# [10] = six weeks open storage, RT/75% RH
# [11] = six weeks open storage, RT/<5% RH
smiles,measurement,setting,value
"Cn1cc(-c2ccc3nnc(C(F)(F)c4ccc5ncccc5c4)n3n2)cn1 [Form I, 6-{difluoro[6-(1-methyl-1H-pyrazol-4-yl)[1,2,4]triazolo[4,3-b]pyridazin-3-yl]methyl}quinoline]",HPLC Sum of impurities,"[1]; 0.3da ICH light, 1 w",0.55 w/w %
same,Appearance,"[1]; 0.3da ICH light, 1 week",slightly yellow
same,HPLC Sum of impurities,"[1]; 40° C./75% RH, 1 w",0.51 w/w %
same,Appearance,"[1]; 40° C./75% RH, 1 week",slightly yellow
same,HPLC Sum of impurities,"[1]; 40° C./75% RH, 4 w",0.66 w/w %
same,Appearance,"[1]; 40° C./75% RH, 4 weeks",slightly yellow
same,HPLC Sum of impurities,"[1]; 40° C./75% RH, 8 w",0.54 w/w %
same,Appearance,"[1]; 40° C./75% RH, 8 weeks",slightly yellow
same,HPLC Sum of impurities,"[1]; 50° C., 1 w",0.56 w/w %
same,Appearance,"[1]; 50° C., 1 week",slightly yellow
same,HPLC Sum of impurities,"[1]; 50° C., 4 w",0.59 w/w %
same,Appearance,"[1]; 50° C., 4 weeks",slightly yellow
same,HPLC Sum of impurities,"[1]; 50° C., 8 w",0.54 w/w %
same,Appearance,"[1]; 50° C., 8 weeks",slightly yellow
same,HPLC Sum of impurities,"[1]; RT/56% RH, 4 w",0.53 w/w %
same,Appearance,"[1]; RT/56% RH, 4 weeks",slightly yellow
same,HPLC Sum of impurities,"[1]; RT/56% RH, 8 w",0.53 w/w %
same,Appearance,"[1]; RT/56% RH, 8 weeks",slightly yellow
same,HPLC Sum of impurities,"[1]; RT/75% RH, 4 w",0.53 w/w %
same,Appearance,"[1]; RT/75% RH, 4 weeks",slightly yellow
same,HPLC Sum of impurities,"[1]; RT/75% RH, 8 w",0.77 w/w %
same,Appearance,"[1]; RT/75% RH, 8 weeks",slightly yellow
same,HPLC Sum of impurities,"[1]; RT/<5% RH, 4 w",0.62 w/w %
same,Appearance,"[1]; RT/<5% RH, 4 weeks",slightly yellow
same,HPLC Sum of impurities,"[1]; RT/<5% RH, 8 w",0.53 w/w %
same,Appearance,"[1]; RT/<5% RH, 8 weeks",slightly yellow
same,HPLC Sum of impurities,"[1]; Reference, 1 w",0.54 w/w %
same,Appearance,"[1]; Reference, 1 week",slightly yellow
same,Chemical stability,[1]; all investigated conditions,chemically stable
same,Solubility,"[2]; aqueous medium, simulated gastric fluid, thermodynamic from solid, 0.01 HCl, read-out: Solubility",0.1 mg/mL
same,Solubility,"[2]; aqueous medium, simulated gastric fluid, thermodynamic from solid, 0.1 HCl, read-out: Solubility",1.3 mg/mL
same,Solubility,[2]; pH2,0.43 mg/mL
same,Solubility,[2]; pH4,0.005 mg/mL
same,Solubility,[2]; pH6,0.003 mg/mL
same,Solubility,[2]; pH8,0.004 mg/mL
same,Solubility,[2]; pH10,0.003 mg/mL
same,Relative polymorph stability,[3]; from RT up to 70° C.,most stable polymorph
same,DSC Max,[4]; 0 days,201.0 °C
same,DSC ΔH,[4]; 0 days,101 J/g
same,IR,[4]; 0 days,"Cryst., Ref"
same,TGA <100° C.,[4]; 0 days,0.12%
same,TGA <240° C.,[4]; 0 days,0.36%
same,XRD,[4]; 0 days,"Cryst., Ref"
same,Crystallographic stability,[4]; after storage under the different conditions,crystallographically stable
same,DSC Max,[4]; [8],200.5 °C
same,DSC ΔH,[4]; [8],119 J/g
same,IR,[4]; [8],~Ref (identical with Form I reference)
same,TGA <100° C.,[4]; [8],0.33%
same,TGA <240° C.,[4]; [8],0.48%
same,XRD,[4]; [8],~Ref (identical with Form I reference)
same,IR,"[4]; six weeks open storage, 50° C.",~Ref (identical with Form I reference)
same,TGA <100° C.,"[4]; six weeks open storage, 50° C.",0.31%
same,TGA <240° C.,"[4]; six weeks open storage, 50° C.",0.57%
same,XRD,"[4]; six weeks open storage, 50° C.",~Ref (identical with Form I reference)
same,DSC Max,[4]; [9],200.4 °C
same,DSC ΔH,[4]; [9],120 J/g
same,IR,[4]; [9],±Ref
same,TGA <100° C.,[4]; [9],0.58%
same,TGA <240° C.,[4]; [9],0.8%
same,XRD,[4]; [9],~Ref (identical with Form I reference)
same,DSC Max,[4]; [10],200.1 °C
same,DSC ΔH,[4]; [10],121 J/g
same,IR,[4]; [10],±Ref
same,TGA <100° C.,[4]; [10],0.25%
same,TGA <240° C.,[4]; [10],0.57%
same,XRD,[4]; [10],~Ref (identical with Form I reference)
same,DSC Max,[4]; [11],200.1 °C
same,DSC ΔH,[4]; [11],124 J/g
same,IR,[4]; [11],~Ref (identical with Form I reference)
same,TGA <100° C.,[4]; [11],0.74%
same,TGA <240° C.,[4]; [11],0.75%
same,XRD,[4]; [11],~Ref (identical with Form I reference)
same,Weight loss during initial drying step,[5]; about 10 mg,0.05%
same,Water adsorbed by dry product,[5]; depending on the atmospheric humidity,up to 0.5%
same,Hygroscopic behaviour,[5]; different relative humidity,no hygroscopic behaviour
"Cn1cc(-c2ccc3nnc(C(F)(F)c4ccc5ncccc5c4)n3n2)cn1 [hydrate, 6-{difluoro[6-(1-methyl-1H-pyrazol-4-yl)[1,2,4]triazolo[4,3-b]pyridazin-3-yl]methyl}quinoline]",Time hydrate remained stable in the aqueous medium (XRD not substantially changed),[6]; about 4° C.,at least 9 days
same,Solubility,[2]; 0.01 HCl,0.056 mg/mL
same,Solubility,[2]; 0.1 HCl,0.81 mg/mL
same,Solubility,[2]; pH2,0.065 mg/mL
same,Solubility,[2]; pH4,0.002 mg/mL
same,Solubility,[2]; pH6,0.001 mg/mL
same,Solubility,[2]; pH8,0.001 mg/mL
same,Solubility,[2]; pH10,0.001 mg/mL
same,XRPD measured composition,"[7]; DSC treated hydrate, up to 70° C.",hydrate + Form III
same,XRPD measured composition,"[7]; DSC treated hydrate, up to 110° C.",Form III
same,XRPD measured composition,"[7]; DSC treated hydrate, up to 170° C.",mainly Form I
same,XRPD measured composition,[7]; starting hydrate,hydrate
Cn1cc(-c2ccc3nnc(C(F)(F)c4ccc5ncccc5c4)n3n2)cn1 [mixture of Form III and Form I],XRD patterns of the stored suspensions,"[6]; 4° C., 1 day, 2 days and 9 days",compatible with those of the hydrate form
same,Polymorphic composition (XRPD) after slurry,"[3]; 2-propanol, 70° C.",I
same,Polymorphic composition (XRPD) after slurry,"[3]; 2-propanol, RT",I
same,Polymorphic composition (XRPD) after slurry,"[3]; ethanol/water (8/2, v/v), 70° C., low amount of product",I*
same,Polymorphic composition (XRPD) after slurry,"[3]; ethanol/water (8/2, v/v), RT",I

# From patent US8629144B2, “Polymorphic and hydrate forms, salts and process for preparing 6-{difluoro[6-(1-methyl-1H-pyrazol-4-yl)[1,2,4]triazolo[4,3-b]pyridazin-3-yl]methyl}quinoline” (Janssen Pharmaceutica NV, priority 2007, dated 2014)
